The values that follow come from paper PMC8195987, “Structural basis for plazomicin antibiotic action and resistance” (Communications Biology, 2021).

The experiment addresses T1, AAC(2′)-Ia (Providencia stuartii, UniProt Q52424).
T1 construct: synthetic gene in pET-15b, E. coli BL21(DE3); N-terminal His-tag removed with thrombin; homodimer
Nature of the experiment: X-ray crystal structure. The format is binding. The settings on record: product complex with acetylated plazomicin, 1.95 Å; formed from acetyl-CoA during crystallization; active site.

T1 sequence (Q52424 whole entry): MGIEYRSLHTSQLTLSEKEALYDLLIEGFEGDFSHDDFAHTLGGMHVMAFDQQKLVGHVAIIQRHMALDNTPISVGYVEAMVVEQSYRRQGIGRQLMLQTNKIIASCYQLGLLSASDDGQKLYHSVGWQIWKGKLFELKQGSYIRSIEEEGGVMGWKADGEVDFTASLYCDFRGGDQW

With `CC(C)(COP(=O)(O)OP(=O)(O)OC[C@H]1O[C@@H](n2cnc3c(N)ncnc32)[C@H](O)[C@@H]1OP(=O)(O)O)[C@@H](O)C(=O)NCCC(=O)NCCS` [CoA], the X-ray crystal structure entry is “identified the enzymatically modified plazomicin and CoA in the active site”.
